The NIST ThermoML archive (doi:10.1016/j.jct.2009.08.009)

Assay: xn = mol fraction of the nth substance listed
Details: 101 kPa, Liquid; for viscosity: Capillary tube (Ostwald / Ubbelohde) method; for speed of sound: Sing-around technique in a fixed-path interferometer; for mass density: Vibrating tube method

CCOCCOCCO [3,6-dioxa-1-octanol] + CCCCCCCCO
Details | mass density [kg/m3] | speed of sound [m/s] | viscosity [mPa·s]
293.15 K, x1 = 0.0518 | 832.339 | 1364.1 | 7.468
293.15 K, x1 = 0.1011 | 839.204 | 1363.5 | 6.913
293.15 K, x1 = 0.1625 | 848.155 | 1363.1 | 6.159
293.15 K, x1 = 0.1944 | 853.018 | 1363.7 | 5.913
293.15 K, x1 = 0.2538 | 862.076 | 1364.5 | 5.872
293.15 K, x1 = 0.3165 | 872.254 | 1365.7 | 5.104
293.15 K, x1 = 0.3685 | 880.933 | 1370.8 | 4.837
293.15 K, x1 = 0.4975 | 904.111 | 1377.4 | 4.361
293.15 K, x1 = 0.6048 | 925.139 | 1387.7 | 4.08
293.15 K, x1 = 0.7202 | 949.653 | 1399.5 | 3.846
293.15 K, x1 = 0.8165 | 971.878 | 1415.1 | 3.739
293.15 K, x1 = 0.9144 | 996.047 | 1349.4 | 3.66
293.15 K, x1 = 1 | – | – | 3.626
298.15 K, x1 = 0.0518 | 828.835 | 1347.1 | 6.198
298.15 K, x1 = 0.1011 | 835.659 | 1346.5 | 6.03
298.15 K, x1 = 0.1625 | 844.559 | 1346.3 | 5.405
298.15 K, x1 = 0.1944 | 849.396 | 1346.7 | 5.188
298.15 K, x1 = 0.2538 | 858.398 | 1347.6 | 4.799
298.15 K, x1 = 0.3165 | 868.522 | 1348.9 | 4.489
298.15 K, x1 = 0.3685 | 877.154 | 1354.1 | 4.279
298.15 K, x1 = 0.4975 | 900.211 | 1360.7 | 3.918
298.15 K, x1 = 0.6048 | 921.137 | 1370.9 | 3.612
298.15 K, x1 = 0.7202 | 945.535 | 1382.7 | 3.431
298.15 K, x1 = 0.8165 | 991.74 | 1398.2 | 3.328
298.15 K, x1 = 0.9144 | 938.234 | 1332.2 | 3.277
298.15 K, x1 = 1 | – | – | 3.278
303.15 K, x1 = 0.0518 | 825.317 | 1330.3 | 5.429
303.15 K, x1 = 0.1011 | 832.097 | 1329.8 | 5.005
303.15 K, x1 = 0.1625 | 840.951 | 1329.5 | 4.636
303.15 K, x1 = 0.1944 | 845.762 | 1329.6 | 4.404
303.15 K, x1 = 0.2538 | 854.713 | 1330.1 | 4.295
303.15 K, x1 = 0.3165 | 864.78 | 1330.9 | 3.845
303.15 K, x1 = 0.3685 | 873.364 | 1332.3 | 3.67
303.15 K, x1 = 0.4975 | 896.3 | 1337.5 | 3.396
303.15 K, x1 = 0.6048 | 917.122 | 1343.9 | 3.141
303.15 K, x1 = 0.7202 | 941.409 | 1354.3 | 3.045
303.15 K, x1 = 0.8165 | 963.444 | 1381.3 | 2.904
303.15 K, x1 = 0.9144 | 987.41 | 1315 | 2.848
303.15 K, x1 = 1 | – | – | 2.862
308.15 K, x1 = 0.0518 | 821.777 | 1313.7 | 4.542
308.15 K, x1 = 0.1011 | 828.522 | 1313.2 | 4.219
308.15 K, x1 = 0.1625 | 837.324 | 1312.9 | 3.897
308.15 K, x1 = 0.1944 | 842.106 | 1312.9 | 3.781
308.15 K, x1 = 0.2538 | 851.006 | 1313.5 | 3.548
308.15 K, x1 = 0.3165 | 861.019 | 1314.5 | 3.327
308.15 K, x1 = 0.3685 | 869.558 | 1315.7 | 3.169
308.15 K, x1 = 0.4975 | 892.371 | 1320.9 | 2.928
308.15 K, x1 = 0.6048 | 913.092 | 1327.4 | 2.721
308.15 K, x1 = 0.7202 | 937.267 | 1337.7 | 2.6
308.15 K, x1 = 0.8165 | 959.204 | 1349.3 | 2.532
308.15 K, x1 = 0.9144 | 983.069 | 1364.5 | 2.493
308.15 K, x1 = 1 | – | – | 2.507

CCOCCOCCO [3,6-dioxa-1-octanol] + CCCCCCCCCCO
Details | mass density [kg/m3] | speed of sound [m/s] | viscosity [mPa·s]
293.15 K, x1 = 0.0607 | 836.419 | 1394.1 | 11.4
293.15 K, x1 = 0.109 | 841.997 | 1392.3 | 10.28
293.15 K, x1 = 0.1561 | 847.628 | 1390.6 | 9.367
293.15 K, x1 = 0.2105 | 854.439 | 1388.9 | 8.743
293.15 K, x1 = 0.2599 | 862.044 | 1387.4 | 7.761
293.15 K, x1 = 0.3089 | 867.859 | 1386.6 | 7.383
293.15 K, x1 = 0.3533 | 874.329 | 1385.8 | 6.336
293.15 K, x1 = 0.4923 | 896.636 | 1385.3 | 5.731
293.15 K, x1 = 0.5986 | 916.267 | 1387.2 | 5.141
293.15 K, x1 = 0.7153 | 940.786 | 1392.6 | 4.525
293.15 K, x1 = 0.7918 | 959.008 | 1398.6 | 4.186
293.15 K, x1 = 0.901 | 988.518 | 1412.6 | 3.899
293.15 K, x1 = 1 | – | – | 3.626
298.15 K, x1 = 0.0607 | 832.969 | 1377 | 9.658
298.15 K, x1 = 0.109 | 838.521 | 1375.3 | 8.774
298.15 K, x1 = 0.1561 | 844.112 | 1373.6 | 8.059
298.15 K, x1 = 0.2105 | 850.88 | 1371.8 | 7.574
298.15 K, x1 = 0.2599 | 858.441 | 1370.5 | 6.868
298.15 K, x1 = 0.3089 | 864.217 | 1369.6 | 6.353
298.15 K, x1 = 0.3533 | 870.65 | 1368.9 | 6.008
298.15 K, x1 = 0.4923 | 892.825 | 1368.4 | 5.027
298.15 K, x1 = 0.5986 | 912.348 | 1370.3 | 4.479
298.15 K, x1 = 0.7153 | 936.739 | 1375.7 | 4.005
298.15 K, x1 = 0.7918 | 954.872 | 1381.7 | 3.729
298.15 K, x1 = 0.901 | 984.244 | 1395.6 | 3.449
298.15 K, x1 = 1 | – | – | 3.278
303.15 K, x1 = 0.0607 | 829.51 | 1360.1 | 8.114
303.15 K, x1 = 0.109 | 835.031 | 1358.4 | 7.312
303.15 K, x1 = 0.1561 | 840.589 | 1356.8 | 6.739
303.15 K, x1 = 0.2105 | 847.315 | 1355.1 | 6.387
303.15 K, x1 = 0.2599 | 854.826 | 1353.7 | 5.858
303.15 K, x1 = 0.3089 | 860.567 | 1352.8 | 5.366
303.15 K, x1 = 0.3533 | 866.962 | 1352.1 | 5.083
303.15 K, x1 = 0.4923 | 889.005 | 1351.7 | 4.338
303.15 K, x1 = 0.5986 | 908.42 | 1353.7 | 3.859
303.15 K, x1 = 0.7153 | 932.679 | 1358.9 | 3.458
303.15 K, x1 = 0.7918 | 950.728 | 1364.9 | 3.235
303.15 K, x1 = 0.901 | 979.965 | 1378.8 | 3.021
303.15 K, x1 = 1 | – | – | 2.862
308.15 K, x1 = 0.0607 | 826.037 | 1343.3 | 6.698
308.15 K, x1 = 0.109 | 831.525 | 1341.6 | 6.116
308.15 K, x1 = 0.1561 | 837.051 | 1340.1 | 5.838
308.15 K, x1 = 0.2105 | 843.734 | 1338.4 | 5.38
308.15 K, x1 = 0.2599 | 851.204 | 1336.9 | 4.826
308.15 K, x1 = 0.3089 | 856.908 | 1336.2 | 4.528
308.15 K, x1 = 0.3533 | 863.255 | 1335.5 | 4.319
308.15 K, x1 = 0.4923 | 885.17 | 1335.1 | 3.697
308.15 K, x1 = 0.5986 | 904.477 | 1337 | 3.346
308.15 K, x1 = 0.7153 | 928.613 | 1342.4 | 2.978
308.15 K, x1 = 0.7918 | 946.566 | 1348.3 | 2.817
308.15 K, x1 = 0.901 | 975.664 | 1362.1 | 2.67
308.15 K, x1 = 1 | – | – | 2.507
